The values below come from patent US9169269B2, “Water-soluble solid pharmaceutical inclusion complexes and their aqueous solutions for oral, ophthalmic, topical or parenteral use containing a macrolide and certain cyclodextrins” (EUTICALS SPA, priority 2010, dated 2015).

Molecules are shown by their SMILES.

Holding throughout (format): physicochemical
Data set [1] in a line: Stability of Everolimus gamma CD complex versus amorphous Everolimus (powder) at 60° C., total impurities (HPLC). To be noted: powder 60° C. As to the method:
For the HPLC determination of the chromatographic purity of Temsirolimus and Everolimus: Column: Zorbax SB-C18; 3.5 μm (75×4.6 mm), Precolumn: Symmetry Shield RP18; 5 μm (20×3.9 mm).
Mobile Phase composition: • Component A: 900 ml of water, 100 ml of acetonitrile and 50 μl of 50% aqueous acetic acid • Component B: 1000 ml of acetonitrile and 50 μl of 50% aqueous acetic acid Gradient elution: […]
Flow rate: 1 ml/min. Column temperature: 60° C. Volume of injection: 20 μl.
Sample preparation: solution of 0.5 mg/ml in acetonitrile. Detector UV: 278 nm
The stability data on Everolimus complex with CD prepared according each of the examples 2 and 3 are reported on FIG. 3 and on Table 7.
In particular, in FIG. 3, are reported the sum of the related by products originated by degradation (HPLC data in area %) during a stability tests performed on the powder at 60° C. for 96 hours.

Data set [2] in a line: Stability of amorphous and crystalline Rapamycin at 60° C. (HPLC chromatographic purity). The conditions noted are these: for decrease of chromatographic purity: after 408 hours (17 days). As to the method:
For the HPLC determination of chromatographic purity of Rapamycin: Column: Thermo BDS Hypersil C18; 3 μm (100×4.6 mm). Mobile Phase composition: isocratic elution • Component A: 50% acetonitrile • Component B: 50% ammonium acetate buffer pH 5.8 (concentration 0.8 g/l of ammonium acetate; the final pH value was brought to a final value of 5.8 with glacial acetic acid)
Flow rate: 1.0 ml/min. Column temperature: 55° C. Volume of injection: 100 μl.
Sample solution: weight 25 mg of Rapamycin and dissolve in 100 ml of acetonitrile/water 1/1 v/v (final concentration 0.25 mg/ml). UV detector: 278 nm

The nature of data set [3]: Preliminary stability tests on micronized Rapamycin and in solution (ethanol). The conditions noted are these: finely micronized (10^−5 microns) and in solution (ethanol), within few hours. An excerpt: In order to proceed with formulative studies we have performed preliminary stability tests on micronized Rapamycin (10^−5 microns) and in solution (ethanol).

For the compound `CO[C@H]1C[C@@H]2CC[C@@H](C)[C@@](O)(O2)C(=O)C(=O)N2CCCC[C@H]2C(=O)O[C@H]([C@H](C)C[C@@H]2CC[C@@H](OCCO)[C@H](OC)C2)CC(=O)[C@H](C)/C=C(\C)[C@@H](O)[C@@H](OC)C(=O)[C@H](C)C[C@H](C)/C=C/C=C/C=C/1C` [Amorphous Everolimus, Everolimus], the “HPLC area % of total impurities” value in data set [1] (0 hours) turned out to be 1.5 area %; in data set [1] (24 hours) it was 2.44 area %; in data set [1] (48 hours), 4.52 area %; in data set [1] (72 hours), 7.1 area %; in data set [1] (96 hours), 9.2 area %; in data set [1] (168 hours), 14.1 area %.
As to `CO[C@H]1C[C@@H]2CC[C@@H](C)[C@@](O)(O2)C(=O)C(=O)N2CCCC[C@H]2C(=O)O[C@H]([C@H](C)C[C@@H]2CC[C@@H](O)[C@H](OC)C2)CC(=O)[C@H](C)/C=C(\C)[C@@H](O)[C@@H](OC)C(=O)[C@H](C)C[C@H](C)/C=C/C=C/C=C/1C` [Amorphous Rapamycin, Rapamycin], the “chromatographic purity (HPLC data)” value in data set [2] (0 hours) worked out at 98.90 area %; in data set [2] (20 hours) it was 93.00 area %; in data set [2] (96 hours), 90.00 area %; in data set [2] (168 hours), 88.00 area %; in data set [2] (408 hours), 84.90 area %. Moreover, the “decrease of chromatographic purity” value in data set [2] is reported as −14%.
Take `CO[C@H]1C[C@@H]2CC[C@@H](C)[C@@](O)(O2)C(=O)C(=O)N2CCCC[C@H]2C(=O)O[C@H]([C@H](C)C[C@@H]2CC[C@@H](O)[C@H](OC)C2)CC(=O)[C@H](C)/C=C(\C)[C@@H](O)[C@@H](OC)C(=O)[C@H](C)C[C@H](C)/C=C/C=C/C=C/1C` [Crystalline Rapamycin, Rapamycin]: the “chromatographic purity (HPLC data)” value is 99.10 area % in data set [2] (0 hours); 99.10 area % in data set [2] (20 hours); 99.10 area % in data set [2] (96 hours); 99.00 area % in data set [2] (168 hours); 99.00 area % in data set [2] (408 hours). Further, the “decrease of chromatographic purity” value in data set [2] is “the same chromatographic purity”.
Turning to `CO[C@H]1C[C@@H]2CC[C@@H](C)[C@@](O)(O2)C(=O)C(=O)N2CCCC[C@H]2C(=O)O[C@H]([C@H](C)C[C@@H]2CC[C@@H](O)[C@H](OC)C2)CC(=O)[C@H](C)/C=C(\C)[C@@H](O)[C@@H](OC)C(=O)[C@H](C)C[C@H](C)/C=C/C=C/C=C/1C` [Rapamycin], the “decrease in the assay value” in data set [3] is recorded as −10%.
